These are literature values, as cited in patent US6294580A, “Substituted 4-hydroxy-phenylalcanoic acid derivatives with agonist activity to PPAR-gamma” (Glaxo Wellcome Inc., priority 1996, dated 2001).

One data set concerns pre-adipocyte cell lines. The conditions noted are these: treatment of pre-adipocyte cell lines; cited from earlier work.
The test system of a further data set is human patients. The conditions noted are these: patients with impaired glucose tolerance, NIDDM; cited from earlier work.

In the case of `CCc1ccc(CCOc2ccc(CC3SC(=O)NC3=O)cc2)nc1` (centres unmarked) [pioglitazone], in the data set with pre-adipocyte cell lines, the “expression of adipocyte-specific genes aP2 and adipsin and glucose transporter proteins GLUT-1 and GLUT-4” value was “increased expression of the adipocyte-specific genes aP2 and adipsin as well as the glucose transporter proteins GLUT-1 and GLUT-4”.

Turning to `Cc1c(C)c2c(c(C)c1O)CCC(C)(COc1ccc(CC3SC(=O)NC3=O)cc1)O2` (centres unmarked) [troglitazone], the “effects in human patients (insulin sensitivity, lipid and insulin levels)” value with human patients is “these same beneficial effects in human patients”.
